tested on: Nrf2 transcriptional activity (pARE-Luc reporter) in HepG2 cells; assay: In vitro Nrf2 transcriptional activity measurement by ARE-dependent reporter assay in HepG2 cell; assay type: cell-based, human; conditions: Homo sapiens; HepG2 cells transfected with pARE-Luc, 4 hours at 37° C.; luciferase activity of Example 1-54 or Example 17-23 at 3.75 μM defined as 100%
Procedure: Test Example 1: In Vitro Nrf2 Transcriptional Activity Measurement by ARE-Dependent Reporter Assay in HepG2 Cell
A human liver cancer-derived cell line HepG2 was transfected with pGL4.37 vector (pARE-Luc, Promega Corp.) and incubated overnight at 37° C. in a humidified atmosphere containing 5% CO2. The cells were dissociated by trypsin treatment, inoculated to a 384-well plate supplemented with a test compound, and incubated at 37° C. for 4 hours. Then, Bright-Glo Reagent (Promega Corp.) was added to the plate, and luciferase activity was measured with Envision plate reader.
Luciferase activity obtained through the action of the compound of Example 1-54 or Example 17-23 at a concentration of 3.75 μM was defined as 100%. The luciferase activity of each well was converted to a response rate (%). The dose-response curve of the compound of each Example was prepared to calculate a 50% effective concentration (EC50).

How did the EC50 turn out when `CO[C@@H]1CC2(CN(c3cc(Cl)c(C(=O)N4COc5c(cccc5-c5cc(N6C7CCC6COC7)c(C(=O)O)cc5F)C4)c(Cl)c3)C2)[C@H]1C` (racemic) [Compound 1-86, 4-[3-[2,6-Dichloro-4-[rac-(6R,7R)-6-methoxy-7-methyl-2-azaspiro[3.3]heptan-2-yl]benzoyl]-2,4-dihydro-1,3-benzoxazin-8-yl]-5-fluoro-2-(3-oxa-8-azabicyclo[3.2.1]octan-8-yl)benzoic acid] was run?
The EC50 was 1.1 nM.

For `CO[C@H]1CC2(CN(c3cc(Cl)c(C(=O)N4COc5c(cccc5-c5cc(N6C7CCC6COC7)c(C(=O)O)cc5F)C4)c(Cl)c3)C2)[C@H]1C` (racemic) [Compound 1-87, 4-[3-[2,6-Dichloro-4-[rac-(6R,7S)-6-methoxy-7-methyl-2-azaspiro[3.3]heptan-2-yl]benzoyl]-2,4-dihydro-1,3-benzoxazin-8-yl]-5-fluoro-2-(3-oxa-8-azabicyclo[3.2.1]octan-8-yl)benzoic acid], which EC50 is on record?
Its EC50 is 1 nM.

Which EC50 does the source give for `CO[C@H]1C[C@H]2CC[C@@H](C1)N2c1cc(Cl)c(C(=O)N2COc3c(cccc3-c3cc(N4C5CCC4COC5)c(C(=O)O)cc3F)C2)c(Cl)c1` (racemic) [Compound 6-11, 4-[3-[2,6-Dichloro-4-[rac-(1R,3r,5S)-3-methoxy-8-azabicyclo[3.2.1]octan-8-yl]benzoyl]-2,4-dihydro-1,3-benzoxazin-8-yl]-5-fluoro-2-(3-oxa-8-azabicyclo[3.2.1]octan-8-yl)benzoic acid] here?
The EC50 was 1.5 nM.

How did the EC50 turn out when `CO[C@H]1C[C@H]2CN(c3cc(Cl)c(C(=O)N4COc5c(cccc5-c5cc(N6C7CCC6COC7)c(C(=O)O)cc5F)C4)c(Cl)c3)C[C@H]21` (racemic) [Compound 6-12, 4-[3-[2,6-Dichloro-4-[rac-(1R,5S,6S)-6-methoxy-3-azabicyclo[3.2.0]heptan-3-yl]benzoyl]-2,4-dihydro-1,3-benzoxazin-8-yl]-5-fluoro-2-(3-oxa-8-azabicyclo[3.2.1]octan-8-yl)benzoic acid] was run?
Its EC50 is 3.9 nM.

`COC1CCC12CN(c1cc(Cl)c(C(=O)N3COc4c(cccc4-c4cc(N5C6CCC5COC6)c(C(=O)O)cc4F)C3)c(Cl)c1)C2` (racemic) [Compound 6-13, 4-[3-[2,6-Dichloro-4-(rac-7-methoxy-2-azaspiro[3.3]heptan-2-yl)benzoyl]-2,4-dihydro-1,3-benzoxazin-8-yl]-5-fluoro-2-(3-oxa-8-azabicyclo[3.2.1]octan-8-yl)benzoic acid] was tested. Which EC50 did it give?
The EC50 was 3.8 nM.

`COCCN1CCN(c2cc(Cl)c(C(=O)N3COc4c(cccc4-c4cc(N5CCOCC5C#N)c(C(=O)O)cc4F)C3)c(Cl)c2)CC1` (racemic) [Compound 20-10, rac-2-(3-Cyanomorpholin-4-yl)-4-[3-[2,6-dichloro-4-[4-(2-methoxyethyl)piperazin-1-yl]benzoyl]-2,4-dihydro-1,3-benzoxazin-8-yl]-5-fluorobenzoic acid] was tested. Which EC50 did it give?
Its EC50 is 25 nM.

`O=C(O)c1cc(F)c(-c2cccc3c2OCN(C(=O)c2c(Cl)cc(OC4CCOC4)cc2Cl)C3)cc1N1C2CCC1COC2` (stereo in doubt) [Compound 4-36, 4-[3-[2,6-Dichloro-4-[(3R)-oxolan-3-yl]oxybenzoyl]-2,4-dihydro-1,3-benzoxazin-8-yl]-5-fluoro-2-(3-oxa-8-azabicyclo[3.2.1]octan-8-yl)benzoic acid] was tested. Which EC50 did it give?
The EC50 was 8.7 nM.

With `O=C(O)c1cc(F)c(-c2cccc3c2OCN(C(=O)c2c(Cl)cc(N4CC5(CCCO5)C4)cc2Cl)C3)cc1N1C2CCC1COC2` [Compound 1-1, 4-[3-[2,6-Dichloro-4-(5-oxa-2-azaspiro[3.4]octan-2-yl)benzoyl]-2,4-dihydro-1,3-benzoxazin-8-yl]-5-fluoro-2-(3-oxa-8-azabicyclo[3.2.1]octan-8-yl)benzoic acid] as the compound, how does the EC50 read?
The EC50 was 2.8 nM.

Which EC50 does the source give for `O=C(O)c1cc(F)c(-c2cccc3c2OCN(C(=O)c2c(Cl)cc(N4CC5(CCO5)C4)cc2Cl)C3)cc1N1C2CCC1COC2` [Compound 1-2, 4-[3-[2,6-Dichloro-4-(1-oxa-6-azaspiro[3.3]heptan-6-yl)benzoyl]-2,4-dihydro-1,3-benzoxazin-8-yl]-5-fluoro-2-(3-oxa-8-azabicyclo[3.2.1]octan-8-yl)benzoic acid] here?
Its EC50 is 8.6 nM.

With `O=C(O)c1cc(F)c(-c2cccc3c2OCN(C(=O)c2c(Cl)cc(N4CC5(CCOC5)C4)cc2Cl)C3)cc1N1C2CCC1COC2` [Compound 1-3, 4-[3-[2,6-Dichloro-4-(6-oxa-2-azaspiro[3.4]octan-2-yl)benzoyl]-2,4-dihydro-1,3-benzoxazin-8-yl]-5-fluoro-2-(3-oxa-8-azabicyclo[3.2.1]octan-8-yl)benzoic acid] as the compound, how does the EC50 read?
Its EC50 is 5.8 nM.

How did the EC50 turn out when `O=C(O)c1cc(F)c(-c2cccc3c2OCN(C(=O)c2c(Cl)cc(N4C5COCC4C5)cc2Cl)C3)cc1N1C2CCC1COC2` [Compound 1-5, 4-[3-[2,6-Dichloro-4-(3-oxa-6-azabicyclo[3.1.1]heptan-6-yl)benzoyl]-2,4-dihydro-1,3-benzoxazin-8-yl]-5-fluoro-2-(3-oxa-8-azabicyclo[3.2.1]octan-8-yl)benzoic acid] was run?
Its EC50 is 3.1 nM.

With `O=C(O)c1cc(F)c(-c2cccc3c2OCN(C(=O)c2c(Cl)cc(N4CC5(CC(O)C5)C4)cc2Cl)C3)cc1N1C2CCC1COC2` [Compound 1-6, 4-[3-[2,6-Dichloro-4-(6-hydroxy-2-azaspiro[3.3]heptan-2-yl)benzoyl]-2,4-dihydro-1,3-benzoxazin-8-yl]-5-fluoro-2-(3-oxa-8-azabicyclo[3.2.1]octan-8-yl)benzoic acid] as the compound, how does the EC50 read?
Its EC50 is 9.6 nM.

Which EC50 does the source give for `O=C(O)c1cc(F)c(-c2cccc3c2OCN(C(=O)c2c(Cl)cc(N4CC5(C4)CC5(F)F)cc2Cl)C3)cc1N1C2CCC1COC2` [Compound 1-7, 4-[3-[2,6-Dichloro-4-(2,2-difluoro-5-azaspiro[2.3]hexan-5-yl)benzoyl]-2,4-dihydro-1,3-benzoxazin-8-yl]-5-fluoro-2-(3-oxa-8-azabicyclo[3.2.1]octan-8-yl)benzoic acid] here?
Its EC50 is 2 nM.

How did the EC50 turn out when `COC1(C(F)F)CN(c2cc(Cl)c(C(=O)N3COc4c(cccc4-c4cc(N5C6CCC5COC6)c(C(=O)O)cc4F)C3)c(Cl)c2)C1` [Compound 1-8, 4-[3-[2,6-Dichloro-4-[3-(difluoromethyl)-3-methoxyazetidin-1-yl]benzoyl]-2,4-dihydro-1,3-benzoxazin-8-yl]-5-fluoro-2-(3-oxa-8-azabicyclo[3.2.1]octan-8-yl)benzoic acid] was run?
Its EC50 is 2.2 nM.

How did the EC50 turn out when `COC1CN(c2cc(Cl)c(C(=O)N3COc4c(cccc4-c4cc(N5C6CCC5COC6)c(C(=O)O)cc4F)C3)c(Cl)c2)C1(C)C` (stereo not shown) [Compound 1-9, 4-[3-[2,6-Dichloro-4-(3-methoxy-2,2-dimethylazetidin-1-yl)benzoyl]-2,4-dihydro-1,3-benzoxazin-8-yl]-5-fluoro-2-(3-oxa-8-azabicyclo[3.2.1]octan-8-yl)benzoic acid] was run?
The EC50 was 4.6 nM.

`O=C(O)c1cc(F)c(-c2cccc3c2OCN(C(=O)c2c(Cl)cc(N4CC(OC(F)F)C4)cc2Cl)C3)cc1N1C2CCC1COC2` [Compound 1-10, 4-[3-[2,6-Dichloro-4-[3-(difluoromethoxy)azetidin-1-yl]benzoyl]-2,4-dihydro-1,3-benzoxazin-8-yl]-5-fluoro-2-(3-oxa-8-azabicyclo[3.2.1]octan-8-yl)benzoic acid] was tested. Which EC50 did it give?
The EC50 was 3.1 nM.

`CC1(F)CN(c2cc(Cl)c(C(=O)N3COc4c(cccc4-c4cc(N5C6CCC5COC6)c(C(=O)O)cc4F)C3)c(Cl)c2)C1` [Compound 1-11, 4-[3-[2,6-Dichloro-4-(3-fluoro-3-methylazetidin-1-yl)benzoyl]-2,4-dihydro-1,3-benzoxazin-8-yl]-5-fluoro-2-(3-oxa-8-azabicyclo[3.2.1]octan-8-yl)benzoic acid] was tested. Which EC50 did it give?
The EC50 was 2.1 nM.

How did the EC50 turn out when `O=C(O)c1cc(F)c(-c2cccc3c2OCN(C(=O)c2c(Cl)cc(N4CC(O)(C(F)(F)F)C4)cc2Cl)C3)cc1N1C2CCC1COC2` [Compound 1-12, 4-[3-[2,6-Dichloro-4-[3-hydroxy-3-(trifluoromethyl)azetidin-1-yl]benzoyl]-2,4-dihydro-1,3-benzoxazin-8-yl]-5-fluoro-2-(3-oxa-8-azabicyclo[3.2.1]octan-8-yl)benzoic acid] was run?
The EC50 was 16 nM.

For `O=C(O)c1cc(F)c(-c2cccc3c2OCN(C(=O)c2c(Cl)cc(N4CC5(CC5)C4)cc2Cl)C3)cc1N1C2CCC1COC2` [Compound 1-13, 4-[3-[4-(5-Azaspiro[2.3]hexan-5-yl)-2,6-dichlorobenzoyl]-2,4-dihydro-1,3-benzoxazin-8-yl]-5-fluoro-2-(3-oxa-8-azabicyclo[3.2.1]octan-8-yl)benzoic acid], which EC50 is on record?
The EC50 was 2.4 nM.

How did the EC50 turn out when `O=C(O)c1cc(F)c(-c2cccc3c2OCN(C(=O)c2c(Cl)cc(N4CC(OC(F)(F)F)C4)cc2Cl)C3)cc1N1C2CCC1COC2` [Compound 1-14, 4-[3-[2,6-Dichloro-4-[3-(trifluoromethoxy)azetidin-1-yl]benzoyl]-2,4-dihydro-1,3-benzoxazin-8-yl]-5-fluoro-2-(3-oxa-8-azabicyclo[3.2.1]octan-8-yl)benzoic acid] was run?
Its EC50 is 4.4 nM.

For `CC1(C#N)CN(c2cc(Cl)c(C(=O)N3COc4c(cccc4-c4cc(N5C6CCC5COC6)c(C(=O)O)cc4F)C3)c(Cl)c2)C1` [Compound 1-15, 4-[3-[2,6-Dichloro-4-(3-cyano-3-methylazetidin-1-yl)benzoyl]-2,4-dihydro-1,3-benzoxazin-8-yl]-5-fluoro-2-(3-oxa-8-azabicyclo[3.2.1]octan-8-yl)benzoic acid], which EC50 is on record?
The EC50 was 2.7 nM.

How did the EC50 turn out when `O=C(O)c1cc(F)c(-c2cccc3c2OCN(C(=O)c2c(Cl)cc(N4CC(O)(c5ccccc5)C4)cc2Cl)C3)cc1N1C2CCC1COC2` [Compound 1-16, 4-[3-[2,6-Dichloro-4-(3-hydroxy-3-phenylazetidin-1-yl)benzoyl]-2,4-dihydro-1,3-benzoxazin-8-yl]-5-fluoro-2-(3-oxa-8-azabicyclo[3.2.1]octan-8-yl)benzoic acid] was run?
The EC50 was 11 nM.

Reference: US20250171457A1, “NITROGEN-CONTAINING HETEROCYCLIC COMPOUND HAVING NRF2 ACTIVATION EFFECT” (CHUGAI SEIYAKU KABUSHIKI KAISHA, priority 2022, published 2025)
